From PMC4515083, “Selective Targeting of the TPX2 Site of Importin-α Using Fragment-Based Ligand Design” (Chemmedchem, 2015) come the findings set out here.

SMILES strings stand for the structures.

For the assay, the target named is T1, ΔIBB-importin-α (importin-α1, KPNA2) (Mus musculus, UniProt P52293).
T1 construct: modified pET-30a with TEV-cleavable His6/S-tag, tag cleaved; recombinant
Briefly: direct ITC. It is filed as binding. The source says:
direct ITC on ΔIBB-importin-α (importin-α1, KPNA2)
What is called Kd is the free concentration of one partner at which half of the binding sites on the other are occupied at equilibrium, for simple one-to-one binding. `NCCCC[C@H](NCc1ccc(-c2cccnc2)cc1)C(N)=O` [compound 11] returned a Kd of 4 ± 0.5 mM. With `NCCCC[C@H](NC(=O)c1ccc(-c2cccnc2)cc1)C(N)=O` [compound 14] the figure was over 10 mM.

Take `NCCCC[C@@H](NCc1ccc(-c2cccnc2)cc1)C(N)=O` [compound 15]: the Kd is 3.8 ± 0.4 mM. In the case of `NCCCC[C@H](NCc1cccc(-c2cccnc2)c1)C(N)=O` [compound 16] it was 1.3 ± 0.1 mM. For `NCCCC[C@H](NCc1ccc(-c2cccnc2)s1)C(N)=O` [compound 17], the Kd worked out at 0.9 ± 0.1 mM.
